Results reported in patent US6054435A, “6-O-substituted macrolides having antibacterial activity” (priority 1999, dated 2000).
Values after ≈ are worked out from the molar mass of the structure shown.

Key:
Assay in all cases: in vitro antibacterial activity (MIC), agar dilution
Type in all cases: cell-based
[1] = test system: Micrococcus luteus ATCC 9341; conditions: organism code OO; BHI agar, 35-37° C., 20 to 24 hours; unit assumed
Procedure: (§1) Representative compounds of the present invention were assayed in vitro for antibacterial activity as follows: Twelve petri dishes containing successive aqueous dilutions of the test compound mixed with 10 mL of sterilized Brain Heart Infusion (BHI) agar (Difco 0418-01-5) were prepared. Each plate was inoculated with 1:100 (or 1:10 for slow-growing strains, such as Micrococcus and Streptococcus) dilutions of up to 32 different microorganisms, using a Steers replicator block. […] In addition, a control plate, using BHI agar containing no test compound, was prepared and incubated at the beginning and end of each test.
(§2) An additional plate containing a compound having known susceptibility patterns for the organisms being tested and belonging to the same antibiotic class as the test compound was also prepared and incubated as a further control, as well as to provide test-to-test comparability.
(§3) After incubation, each plate was visually inspected. The minimum inhibitory concentration (MIC) was defined as the lowest concentration of drug yielding no growth, a slight haze, or sparsely isolated colonies on the inoculum spot as compared to the growth control.

[2] = test system: Staphylococcus aureus ATCC 6538P; conditions: organism code AA; BHI agar, 35-37° C., 20 to 24 hours; unit assumed
Procedure: as §1, §2, §3

[3] = test system: Mycobacterium smegmatis ATCC 114; conditions: organism code UU; BHI agar, 35-37° C., 20 to 24 hours; unit assumed
Procedure: as §1, §2, §3

[4] = test system: Nocardia Asteroides ATCC9970; conditions: organism code VV; BHI agar, 35-37° C., 20 to 24 hours; unit assumed
Procedure: as §1, §2, §3

[5] = test system: Micrococcus luteus ATCC 4698; conditions: organism code PP; BHI agar, 35-37° C., 20 to 24 hours; unit assumed
Procedure: as §1, §2, §3

[6] = test system: Staphylococcus aureus A5177; conditions: organism code BB; BHI agar, 35-37° C., 20 to 24 hours; unit assumed
Procedure: as §1, §2, §3

[7] = test system: Streptococcus pyogenes PIU 2548; conditions: organism code NN; BHI agar, 35-37° C., 20 to 24 hours; unit assumed
Procedure: as §1, §2, §3

[8] = test system: Streptococcus Pneumonia 5979; conditions: organism code ZZ; BHI agar, 35-37° C., 20 to 24 hours; unit assumed
Procedure: as §1, §2, §3

[9] = test system: Staphylococcus aureus 1775; conditions: organism code GG; BHI agar, 35-37° C., 20 to 24 hours; unit assumed
Procedure: as §1, §2, §3

[10] = test system: Streptococcus bovis A-5169; conditions: organism code JJ; BHI agar, 35-37° C., 20 to 24 hours; unit assumed
Procedure: as §1, §2, §3

[11] = test system: Streptococcus agalactiae CMX 508; conditions: organism code KK; BHI agar, 35-37° C., 20 to 24 hours; unit assumed
Procedure: as §1, §2, §3

[12] = test system: Streptococcus Pneumonia GYR 1171; conditions: organism code YY; BHI agar, 35-37° C., 20 to 24 hours; unit assumed
Procedure: as §1, §2, §3

Escherichia coli DC-2 = conditions: organism code SS; BHI agar, 35-37° C., 20 to 24 hours; unit assumed
Procedure: as §1, §2, §3

[13] = test system: Enterococcus faecium ATCC 8043; conditions: organism code II; BHI agar, 35-37° C., 20 to 24 hours; unit assumed
Procedure: as §1, §2, §3

Escherichia coli SS = conditions: organism code RR; BHI agar, 35-37° C., 20 to 24 hours; unit assumed
Procedure: as §1, §2, §3

Escherichia coli JUHL = conditions: organism code QQ; BHI agar, 35-37° C., 20 to 24 hours; unit assumed
Procedure: as §1, §2, §3

[14] = test system: Streptococcus Pneumonia ATCC6303; conditions: organism code XX; BHI agar, 35-37° C., 20 to 24 hours; unit assumed
Procedure: as §1, §2, §3

[15] = test system: Staphylococcus aureus CMX 553; conditions: organism code FF; BHI agar, 35-37° C., 20 to 24 hours; unit assumed
Procedure: as §1, §2, §3

Candida albicans CCH 442 = conditions: organism code TT; BHI agar, 35-37° C., 20 to 24 hours; unit assumed
Procedure: as §1, §2, §3

[16] = test system: Staphylococcus epidermidis 3519; conditions: organism code HH; BHI agar, 35-37° C., 20 to 24 hours; unit assumed
Procedure: as §1, §2, §3

[17] = test system: Haemophilis Influenzae DILL AMP R; conditions: organism code WW; BHI agar, 35-37° C., 20 to 24 hours; unit assumed
Procedure: as §1, §2, §3

[18] = test system: Streptococcus pyogenes EES61; conditions: organism code LL; BHI agar, 35-37° C., 20 to 24 hours; unit assumed
Procedure: as §1, §2, §3

[19] = test system: Staphylococcus aureus NCTC10649M; conditions: organism code EE; BHI agar, 35-37° C., 20 to 24 hours; unit assumed
Procedure: as §1, §2, §3

[20] = test system: Staphylococcus aureus A-5278; conditions: organism code CC; BHI agar, 35-37° C., 20 to 24 hours; unit assumed
Procedure: as §1, §2, §3

[21] = test system: Staphylococcus aureus CMX 642A; conditions: organism code DD; BHI agar, 35-37° C., 20 to 24 hours; unit assumed
Procedure: as §1, §2, §3

[22] = test system: Streptococcus pyogenes 930; conditions: organism code MM; BHI agar, 35-37° C., 20 to 24 hours; unit assumed
Procedure: as §1, §2, §3

[23] = test system: Streptococcus Pneumonia 5649; conditions: organism code ZZA; BHI agar, 35-37° C., 20 to 24 hours; unit assumed
Procedure: as §1, §2, §3

Compound	MIC [1] [µg/mL]	MIC [2] [µg/mL]	MIC [3] [µg/mL]	MIC [4] [µg/mL]	MIC [5] [µg/mL]	MIC [6] [µg/mL]	MIC [7] [µg/mL]	MIC [8] [µg/mL]	MIC [9] [µg/mL]	MIC [10] [µg/mL]	MIC [11] [µg/mL]	MIC [12] [µg/mL]	MIC (Escherichia coli DC-2) [µg/mL]	MIC (Escherichia coli SS) [µg/mL]	MIC (Escherichia coli JUHL) [µg/mL]	MIC [14] [µg/mL]	MIC [15] [µg/mL]	MIC (Candida albicans CCH 442) [µg/mL]	MIC [16] [µg/mL]	MIC [17] [µg/mL]	further results
CC[C@H]1OC(=O)[C@H](C)C(=O)[C@H](C)[C@@H](O[C@@H]2O[C@H](C)C[C@H](N(C)C)[C@H]2O)[C@](C)(OC/C=C/c2cncc(-c3cnc4ccccc4c3)c2)C[C@@H](C)C(=O)[C@H](C)[C@H]2NC(=O)O[C@@]21C [Example 44]	0.01 (≈ 0.0119 µM)	0.1 (≈ 0.119 µM)	0.39 (≈ 0.463 µM)	0.1 (≈ 0.119 µM)	0.1 (≈ 0.119 µM)	0.1 (≈ 0.119 µM)	0.1 (≈ 0.119 µM)	8 (≈ 9.49 µM)	> 100	0.01 (≈ 0.0119 µM)	0.05 (≈ 0.0593 µM)	≤ 0.004	50 (≈ 59.3 µM)	0.2 (≈ 0.237 µM)	100 (≈ 119 µM)	≤ 0.004	0.05 (≈ 0.0593 µM)	> 100	0.1 (≈ 0.119 µM)	2 (≈ 2.37 µM)	MIC [13]: 0.05 µg/mL (≈ 0.0593 µM); MIC [18]: 0.01 µg/mL (≈ 0.0119 µM); MIC [19]: 0.2 µg/mL (≈ 0.237 µM); MIC [20]: > 100 µg/mL; MIC [21]: 0.1 µg/mL (≈ 0.119 µM); MIC [22]: 6.2 µg/mL (≈ 7.35 µM)
CC[C@H]1OC(=O)[C@H](C)C(=O)[C@H](C)[C@@H](O[C@@H]2O[C@H](C)C[C@H](N(C)C)[C@H]2O)[C@](C)(OCC#Cc2ccc(-c3cccc(OC)c3)s2)C[C@@H](C)C(=O)[C@H](C)[C@H]2NC(=O)O[C@@]21C [Example 14]	0.01 (≈ 0.0121 µM)	0.1 (≈ 0.121 µM)	0.2 (≈ 0.242 µM)	0.1 (≈ 0.121 µM)	0.02 (≈ 0.0242 µM)	0.1 (≈ 0.121 µM)	0.1 (≈ 0.121 µM)	1 (≈ 1.21 µM)	50 (≈ 60.6 µM)	≤ 0.005	0.01 (≈ 0.0121 µM)	0.03 (≈ 0.0364 µM)	> 100	0.39 (≈ 0.473 µM)	> 100	0.03 (≈ 0.0364 µM)	0.1 (≈ 0.121 µM)	> 100	0.1 (≈ 0.121 µM)	2 (≈ 2.42 µM)	MIC [18]: 0.01 µg/mL (≈ 0.0121 µM); MIC [19]: 0.1 µg/mL (≈ 0.121 µM); MIC [20]: > 100 µg/mL; MIC [21]: 0.1 µg/mL (≈ 0.121 µM); MIC [23]: 0.25 µg/mL (≈ 0.303 µM); MIC [22]: 1.56 µg/mL (≈ 1.89 µM)
CC[C@H]1OC(=O)[C@H](C)C(=O)[C@H](C)[C@@H](O[C@@H]2O[C@H](C)C[C@H](N(C)C)[C@H]2O)[C@](C)(OC/C=C/c2cncc(-c3ccccc3)c2)C[C@@H](C)C(=O)[C@H](C)[C@H]2NC(=O)O[C@@]21C [Example 42]	0.02 (≈ 0.0253 µM)	0.1 (≈ 0.126 µM)	0.39 (≈ 0.492 µM)	0.2 (≈ 0.253 µM)	0.2 (≈ 0.253 µM)	0.1 (≈ 0.126 µM)	0.2 (≈ 0.253 µM)	32 (≈ 40.4 µM)	> 100	0.02 (≈ 0.0253 µM)	0.02 (≈ 0.0253 µM)	0.03 (≈ 0.0379 µM)	50 (≈ 63.1 µM)	0.78 (≈ 0.985 µM)	100 (≈ 126 µM)	0.03 (≈ 0.0379 µM)	0.1 (≈ 0.126 µM)	> 100	0.2 (≈ 0.253 µM)	4 (≈ 5.05 µM)	MIC [13]: 0.05 µg/mL (≈ 0.0631 µM); MIC [18]: 0.02 µg/mL (≈ 0.0253 µM); MIC [19]: 0.2 µg/mL (≈ 0.253 µM); MIC [20]: > 100 µg/mL; MIC [21]: 0.2 µg/mL (≈ 0.253 µM); MIC [22]: 50 µg/mL (≈ 63.1 µM)
CC[C@H]1OC(=O)[C@H](C)C(=O)[C@H](C)[C@@H](O[C@@H]2O[C@H](C)C[C@H](N(C)C)[C@H]2O)[C@](C)(OCC#Cc2ccc(-c3cccc(F)c3)s2)C[C@@H](C)C(=O)[C@H](C)[C@H]2NC(=O)O[C@@]21C [Example 15]	0.05 (≈ 0.0615 µM)	0.1 (≈ 0.123 µM)	0.39 (≈ 0.48 µM)	0.2 (≈ 0.246 µM)	0.1 (≈ 0.123 µM)	0.1 (≈ 0.123 µM)	0.2 (≈ 0.246 µM)	0.25 (≈ 0.308 µM)	50 (≈ 61.5 µM)	0.05 (≈ 0.0615 µM)	0.05 (≈ 0.0615 µM)	0.015 (≈ 0.0185 µM)	> 100	0.39 (≈ 0.48 µM)	> 100	0.015 (≈ 0.0185 µM)	0.1 (≈ 0.123 µM)	> 100	0.2 (≈ 0.246 µM)	2 (≈ 2.46 µM)	MIC [18]: 0.05 µg/mL (≈ 0.0615 µM); MIC [19]: 0.2 µg/mL (≈ 0.246 µM); MIC [20]: 50 µg/mL (≈ 61.5 µM); MIC [21]: 0.2 µg/mL (≈ 0.246 µM); MIC [23]: 0.25 µg/mL (≈ 0.308 µM); MIC [22]: 3.1 µg/mL (≈ 3.81 µM)
